Measured values reported in ChEMBL document CHEMBL1201862, “PubChem BioAssay data set” (2004).
Activity calls are given as the source filed them.

How the values were obtained:
Mucolipin-3 = molecular target: T1, Mucolipin-3 (Homo sapiens, UniProt Q8TDD5); assay: Dose response cell-based high-throughput screening assay for agonists of the transient receptor potential channel ML3 (TRPML3). [Related pubchem assays: 1526, 1424, 1448 ]; format: functional
T1 sequence (Q8TDD5 whole entry): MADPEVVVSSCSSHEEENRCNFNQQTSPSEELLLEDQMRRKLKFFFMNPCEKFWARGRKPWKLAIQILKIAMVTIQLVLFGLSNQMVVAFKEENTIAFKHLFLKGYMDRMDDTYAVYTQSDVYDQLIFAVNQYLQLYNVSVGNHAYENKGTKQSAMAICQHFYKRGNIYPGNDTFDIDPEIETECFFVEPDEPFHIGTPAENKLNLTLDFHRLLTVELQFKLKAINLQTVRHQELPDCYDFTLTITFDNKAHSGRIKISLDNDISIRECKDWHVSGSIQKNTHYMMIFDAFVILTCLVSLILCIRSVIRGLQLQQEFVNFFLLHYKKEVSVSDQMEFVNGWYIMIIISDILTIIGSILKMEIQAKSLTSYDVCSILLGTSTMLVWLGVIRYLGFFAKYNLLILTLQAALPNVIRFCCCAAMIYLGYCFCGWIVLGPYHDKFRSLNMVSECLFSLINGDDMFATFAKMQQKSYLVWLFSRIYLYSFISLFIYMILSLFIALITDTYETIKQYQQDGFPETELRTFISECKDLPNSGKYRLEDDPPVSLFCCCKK

Ion channel NompC = Ion channel NompC (Danio rerio, UniProt Q7T1G6); assay: Fluorescence counterscreen assay for TRPML3 agonists: dose response cell-based high-throughput screening assay to identify agonists of the transient receptor potential channel N1 (TRPN1). [Related pubchem assays: 1526, 1424, 1448 ]; format: functional
Chain of Ion channel NompC (Q7T1G6 whole entry): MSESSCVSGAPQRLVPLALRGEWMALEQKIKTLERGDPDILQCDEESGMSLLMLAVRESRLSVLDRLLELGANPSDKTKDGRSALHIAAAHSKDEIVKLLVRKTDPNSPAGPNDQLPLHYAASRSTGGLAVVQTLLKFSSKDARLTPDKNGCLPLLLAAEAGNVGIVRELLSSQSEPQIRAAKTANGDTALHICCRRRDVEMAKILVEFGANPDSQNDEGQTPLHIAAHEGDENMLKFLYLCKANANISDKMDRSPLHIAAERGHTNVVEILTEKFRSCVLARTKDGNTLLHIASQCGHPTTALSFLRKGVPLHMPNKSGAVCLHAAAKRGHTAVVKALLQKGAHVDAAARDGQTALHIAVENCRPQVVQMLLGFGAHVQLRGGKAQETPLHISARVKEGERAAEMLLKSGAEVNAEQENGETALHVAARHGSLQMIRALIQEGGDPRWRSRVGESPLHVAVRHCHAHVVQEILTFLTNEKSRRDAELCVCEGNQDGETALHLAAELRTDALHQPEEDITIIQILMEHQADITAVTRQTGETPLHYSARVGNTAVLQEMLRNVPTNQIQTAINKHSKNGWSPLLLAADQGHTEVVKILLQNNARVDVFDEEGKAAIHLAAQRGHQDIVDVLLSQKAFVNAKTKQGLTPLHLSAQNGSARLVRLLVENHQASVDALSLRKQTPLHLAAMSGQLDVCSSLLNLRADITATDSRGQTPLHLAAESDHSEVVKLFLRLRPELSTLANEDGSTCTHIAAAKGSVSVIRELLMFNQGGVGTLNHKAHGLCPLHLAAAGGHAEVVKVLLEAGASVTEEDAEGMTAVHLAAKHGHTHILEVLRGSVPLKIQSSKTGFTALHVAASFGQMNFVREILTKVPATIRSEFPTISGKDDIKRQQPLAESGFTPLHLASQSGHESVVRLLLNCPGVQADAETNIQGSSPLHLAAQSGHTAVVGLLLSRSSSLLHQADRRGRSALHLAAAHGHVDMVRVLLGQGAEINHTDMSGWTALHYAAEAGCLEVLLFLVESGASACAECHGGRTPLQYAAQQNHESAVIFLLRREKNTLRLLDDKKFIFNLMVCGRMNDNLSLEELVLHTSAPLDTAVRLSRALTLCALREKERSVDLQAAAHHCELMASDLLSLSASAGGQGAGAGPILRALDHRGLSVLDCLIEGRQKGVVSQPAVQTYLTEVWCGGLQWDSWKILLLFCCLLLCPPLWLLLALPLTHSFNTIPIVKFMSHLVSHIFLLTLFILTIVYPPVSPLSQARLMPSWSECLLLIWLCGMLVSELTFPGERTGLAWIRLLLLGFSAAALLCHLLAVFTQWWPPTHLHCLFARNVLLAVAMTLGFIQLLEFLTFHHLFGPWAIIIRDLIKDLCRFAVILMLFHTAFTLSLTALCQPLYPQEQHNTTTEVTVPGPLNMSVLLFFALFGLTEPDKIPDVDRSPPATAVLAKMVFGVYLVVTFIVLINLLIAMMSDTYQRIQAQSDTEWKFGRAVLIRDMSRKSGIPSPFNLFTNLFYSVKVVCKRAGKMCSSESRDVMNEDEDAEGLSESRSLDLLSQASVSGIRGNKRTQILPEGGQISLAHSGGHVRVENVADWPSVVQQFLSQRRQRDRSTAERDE

[1] = molecular target: T2, Replicative DNA helicase DnaB (Mycobacterium tuberculosis, UniProt P9WMR3); assay: DnaB intein splicing inhibitors, dose response, biochemical, cell-free fluorescence (AID 449749); format: functional
T2 sequence (P9WMR3 whole entry): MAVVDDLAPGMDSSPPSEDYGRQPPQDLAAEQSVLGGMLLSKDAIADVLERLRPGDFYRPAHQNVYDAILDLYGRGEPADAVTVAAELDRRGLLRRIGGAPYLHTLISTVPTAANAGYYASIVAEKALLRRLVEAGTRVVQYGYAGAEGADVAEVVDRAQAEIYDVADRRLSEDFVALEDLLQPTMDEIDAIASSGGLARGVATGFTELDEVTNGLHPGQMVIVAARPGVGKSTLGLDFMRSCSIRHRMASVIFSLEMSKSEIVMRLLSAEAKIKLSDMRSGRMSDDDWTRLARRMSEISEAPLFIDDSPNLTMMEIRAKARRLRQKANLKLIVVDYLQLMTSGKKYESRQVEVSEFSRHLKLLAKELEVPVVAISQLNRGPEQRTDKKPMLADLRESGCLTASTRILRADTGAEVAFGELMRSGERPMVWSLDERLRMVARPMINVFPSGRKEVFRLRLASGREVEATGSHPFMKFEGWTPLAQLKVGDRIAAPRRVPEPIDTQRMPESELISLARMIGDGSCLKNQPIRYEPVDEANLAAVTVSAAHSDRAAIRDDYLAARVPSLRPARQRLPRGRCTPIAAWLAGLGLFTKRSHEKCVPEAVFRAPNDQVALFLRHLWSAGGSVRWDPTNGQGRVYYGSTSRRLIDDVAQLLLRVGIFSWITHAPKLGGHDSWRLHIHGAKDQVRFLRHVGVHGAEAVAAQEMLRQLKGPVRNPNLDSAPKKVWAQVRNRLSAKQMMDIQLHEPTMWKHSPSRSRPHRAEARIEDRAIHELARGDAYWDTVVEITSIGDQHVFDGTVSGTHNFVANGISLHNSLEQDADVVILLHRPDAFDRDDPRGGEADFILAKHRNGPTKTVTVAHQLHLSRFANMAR

Protein RecA = molecular target: T3, Protein RecA (Mycobacterium tuberculosis, UniProt P9WHJ3); assay: Fluorescence Cell-Free Homogeneous Dose Retest to Identify Inhibitors of RecA-Intein Splicing Activity. [Related pubchem assays (depositor defined):AID2097, AID2223, AID489010, AID492950]; format: functional
T3 sequence (P9WHJ3 whole entry): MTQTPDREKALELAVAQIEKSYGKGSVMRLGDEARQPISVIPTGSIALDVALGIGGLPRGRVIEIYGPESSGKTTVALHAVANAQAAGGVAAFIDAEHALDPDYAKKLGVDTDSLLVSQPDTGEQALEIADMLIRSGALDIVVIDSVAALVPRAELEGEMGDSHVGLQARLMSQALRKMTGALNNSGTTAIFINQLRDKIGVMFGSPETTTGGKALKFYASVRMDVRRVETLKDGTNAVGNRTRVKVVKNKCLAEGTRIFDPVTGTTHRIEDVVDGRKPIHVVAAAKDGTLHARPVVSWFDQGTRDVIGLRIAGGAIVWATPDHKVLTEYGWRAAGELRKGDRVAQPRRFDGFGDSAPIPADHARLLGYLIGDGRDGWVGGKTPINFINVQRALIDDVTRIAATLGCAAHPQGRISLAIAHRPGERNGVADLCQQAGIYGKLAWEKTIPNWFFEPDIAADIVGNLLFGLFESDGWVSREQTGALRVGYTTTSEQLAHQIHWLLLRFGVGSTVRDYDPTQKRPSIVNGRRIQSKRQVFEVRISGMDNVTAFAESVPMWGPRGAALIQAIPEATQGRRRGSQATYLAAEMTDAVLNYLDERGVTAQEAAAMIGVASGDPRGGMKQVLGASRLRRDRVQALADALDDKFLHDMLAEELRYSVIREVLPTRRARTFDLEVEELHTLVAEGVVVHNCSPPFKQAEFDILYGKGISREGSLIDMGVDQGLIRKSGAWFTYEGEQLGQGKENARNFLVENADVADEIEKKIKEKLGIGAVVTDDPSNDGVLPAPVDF

[2] = molecular target: T4, Fructose-bisphosphate aldolase (Mycobacterium tuberculosis, UniProt P9WQA3); assay: Fluorescence-based biochemical high throughput dose response assay for inhibitors of the fructose-bisphosphate aldolase (FBA) of M. tuberculosis.; format: functional
T4 sequence (P9WQA3 whole entry): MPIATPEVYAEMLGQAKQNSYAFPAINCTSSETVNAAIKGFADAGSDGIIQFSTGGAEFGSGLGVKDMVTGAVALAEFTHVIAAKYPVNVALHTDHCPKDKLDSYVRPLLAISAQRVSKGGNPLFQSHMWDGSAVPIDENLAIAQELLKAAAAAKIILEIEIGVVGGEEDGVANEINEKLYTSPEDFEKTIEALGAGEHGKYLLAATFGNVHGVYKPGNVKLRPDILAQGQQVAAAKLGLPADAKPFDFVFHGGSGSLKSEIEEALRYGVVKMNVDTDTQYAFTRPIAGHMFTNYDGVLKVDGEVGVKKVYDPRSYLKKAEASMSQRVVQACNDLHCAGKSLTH

fMet-Leu-Phe receptor = molecular target: T5, fMet-Leu-Phe receptor (Homo sapiens, UniProt P21462); assay: FPR ligands, dose response (AID 519); format: functional
T5 sequence (P21462 whole entry): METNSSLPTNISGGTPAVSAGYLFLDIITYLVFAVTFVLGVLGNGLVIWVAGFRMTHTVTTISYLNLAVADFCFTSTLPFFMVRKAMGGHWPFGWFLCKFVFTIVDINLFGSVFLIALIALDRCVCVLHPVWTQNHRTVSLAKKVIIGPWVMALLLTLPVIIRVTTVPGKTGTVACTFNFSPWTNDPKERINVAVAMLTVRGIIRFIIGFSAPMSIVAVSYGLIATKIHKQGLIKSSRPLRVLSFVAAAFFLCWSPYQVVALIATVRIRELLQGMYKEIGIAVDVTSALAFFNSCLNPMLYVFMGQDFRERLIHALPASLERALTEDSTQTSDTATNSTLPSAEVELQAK

[3] = Concentration-dependent survival of SW480 colon cancer line, luminescence detection with CellTiter-Glo, half-maximal inhibitory concentration (AID 1117338); format: functional
[4] = RKO cell viability reduction, dose response, CellTiter-Glo luminescence (AID 1117322); format: functional
[5] = cytotoxicity toward HCT116 cells – cell-based, CellTiter-Glo luminescence, IC50, dose response (AID 1117332); format: functional; details: HCT-116
[6] = SNU-C1 cell viability reduction, dose response, CellTiter-Glo luminescence (AID 1117323); format: functional, cell-based
[7] = cytotoxicity toward Colo320 cells – cell-based, CellTiter-Glo luminescence, IC50, dose response (AID 1117334); format: functional; details: COLO 320
[8] = cytotoxicity toward HT-29 cells – cell-based, CellTiter-Glo luminescence, IC50, dose response (AID 1117330); format: functional
[9] = CellTiter-Glo luminescent dose response of DLD-1 viability loss (AID 1117352); format: functional
[10] = HCT116 cell viability decrease, GSK3B pretreatment – CellTiter-Glo, IC50, dose response (AID 1117339); format: functional; details: HCT-116
[11] = NIH-3T3 fibroblast cytotoxicity, dose response, cytotoxicity control, cell-based, fluorescence, Alamar Blue, secondary assay (AID 2327); format: functional;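 further: NIH-3T3 mouse fibroblasts cultured with fluconazole at 8 µg/mL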
[12] = C. albicans growth with fluconazole, confirmation, fluorescence, retest (AID 2467); format: functional, cell-based
[13] = molecular target: T6, Mannose-6-phosphate isomerase (Homo sapiens, UniProt P34949); assay: inhibitors of human PMI, primary screen, biochemical, fluorescence intensity, coupled assay (AID 1209)
T6 sequence (P34949 whole entry): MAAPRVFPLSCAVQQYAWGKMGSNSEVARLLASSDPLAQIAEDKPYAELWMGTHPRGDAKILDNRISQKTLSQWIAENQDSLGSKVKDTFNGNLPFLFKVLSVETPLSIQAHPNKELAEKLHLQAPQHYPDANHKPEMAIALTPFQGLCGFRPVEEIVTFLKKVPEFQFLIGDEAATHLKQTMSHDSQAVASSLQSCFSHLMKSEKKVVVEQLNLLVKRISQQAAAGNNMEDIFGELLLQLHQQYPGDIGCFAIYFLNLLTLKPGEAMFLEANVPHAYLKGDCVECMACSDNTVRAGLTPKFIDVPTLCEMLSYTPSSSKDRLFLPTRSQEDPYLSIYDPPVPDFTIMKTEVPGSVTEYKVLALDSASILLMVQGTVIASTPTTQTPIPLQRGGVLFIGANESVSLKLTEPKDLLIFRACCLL

Nonstructural protein 1 = Nonstructural protein 1 (Influenza A virus, UniProt Q194T2); format: functional, Influenza A virus (A/California/07/2009(H1N1))
Chain of Nonstructural protein 1 (Q194T2 whole entry): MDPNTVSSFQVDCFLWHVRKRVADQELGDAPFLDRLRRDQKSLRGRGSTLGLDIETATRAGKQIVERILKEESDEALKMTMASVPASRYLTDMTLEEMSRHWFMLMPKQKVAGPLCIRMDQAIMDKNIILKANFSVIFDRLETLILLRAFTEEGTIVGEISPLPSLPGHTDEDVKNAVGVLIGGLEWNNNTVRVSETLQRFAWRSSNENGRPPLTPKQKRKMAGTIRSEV

Which EC50 (Mucolipin-3) does the source give for `COc1ccccc1N(C)S(=O)(=O)c1ccc(Cl)c(C(=O)OCc2c(C)noc2C)c1` here?
The EC50 was 3.01 µM (active).

What about the EC50 (Ion channel NompC) of the same molecule?
Its EC50 is > 29.9 µM (not active).

Which results are given for `COc1ccccc1-c1c(C)oc2cc(OC(=O)c3ccco3)ccc2c1=O`?
AC50 [1]: 21.8 µM (active); EC50 (Protein RecA): 23.8 µM (active); IC50 [2]: 1.55 µM (active); Ki (fMet-Leu-Phe receptor): 9 µM (active)

With `CCCCCCCCOC(=O)c1ccccc1C(=O)OCCCCCCCC` as the molecule, how does the IC50 [3] read?
Its IC50 is > 20 µM (inactive).

And the IC50 [4]?
The IC50 was > 20 µM (inactive).

And the IC50 [5]?
The IC50 was > 20 µM (inactive).

And the IC50 [6]?
The IC50 was > 20 µM (inactive).

What about the IC50 [7] of the same molecule?
The IC50 was > 20 µM (inactive).

What about the IC50 [8] of the same molecule?
The IC50 was > 20 µM (inactive).

What about the IC50 [9] of the same molecule?
Its IC50 is > 20 µM (inactive).

And the IC50 [10]?
Its IC50 is > 20 µM (inactive).

Which results are given for `OCCN1CCN(Cc2cc(Cl)c3cccnc3c2O)CC1`?
EC50 [11]: 121 µM (active); EC50 [12]: > 38 µM (not active); IC50 [13]: 4.09 µM (active); IC50 (Nonstructural protein 1): 3.93 µM (active)

For `COc1ccc(N(CC(=O)N2CCCCC2)S(=O)(=O)c2ccccc2)c(OC)c1`, which EC50 (Mucolipin-3) is on record?
Its EC50 is 1.84 µM (active).

What about the EC50 (Ion channel NompC) of the same molecule?
Its EC50 is > 9.99 µM (not active).
